Test results taken from patent publication US20150087723A1, “MICROBIAL COMPOSITION” (Rohm and Haas Company, priority 2011, published 2015).
Values joined by “and” are separate entries in the source; they are usually repeats but may differ in a detail not shown here. Identical values can stand only once. Like-named read-outs stand apart in the source and are kept apart here.

Experiments:
Format in all cases: cell-based
[1] = tested on: Escherichia coli (E. coli—ATCC #10536); test: Automated assessment of efficacy in model surfactant base (2.85% sodium cocoyl glycinate + 1.85% sodium lauroamphoacetate, pH 10), 15 seconds exposure, OD450/OD590 readout; settings: for MBC: Escherichia coli, ATCC10536, 15 s; for No. of replicates showing growth (out of 4) / Δ OD 450 nm = OD450 (time = 16 hours) - OD450 (time zero), Mean / Δ OD 590 nm OD590 (time = 16 hours) - OD590 (time zero), Mean: model surfactant solution
Experimental: Solutions were prepared such that the concentrations of the surfactant components and test actives were 1.1×x the final desired concentration in order to allow for dilution with the bacterial inoculum in the test. The solutions were manually adjusted to pH 10.0 by drop wise addition of sodium hydroxide solution, as measured with a phi meter at ambient temperature.
Tests were conducted using standard microtiter plate assays using an automated liquid handling system, 270 μl of the surfactant test solution was pipetted into each well of the microtitre plate and 30 μl of the bacterial suspension was then added. After exactly 15 seconds of bacterial exposure, a 30 μl volume of bacterial cells was withdrawn and transferred to 270 μl of D/E quench solution. After 5 minutes in the D/E quench, the optical density (OD) was measured for each plate in turn at two specific wavelengths (450 nm and 590 nm). These provide a dual check of antimicrobial activity, as the OD450 reading is specific for the yellow colour of D/E quench when bacterial growth is observed, whereas OD590 is specific for the initial purple colour of the D/E quench which is retained if no bacterial growth is observed. After the time zero OD measurements, plates were then incubated at 37° C. overnight (16 hours) before repeating the OD measurements. Delta OD values were calculated by subtracting […] the initial value at time zero. Bacterial growth is observed as an increase in OD450 and a decrease in ΔOD590. To identify antibacterially efficacious systems (those preventing appreciable bacterial growth after incubation), the following threshold changes in OD readings have been adopted: if (1), OD450 increases by less than 0.2 absorbance unit on incubation and (2). OD590 decreases by less than 0.35 unit on incubation. Conversely, where OD450 increases by more than 0.2 AU and OD590 decreases by more than 0.35 unit after incubation, corresponding to a colour shift from purple to yellow, the test system allows bacterial growth and is not deemed efficacious. Four replicate measurements in the same plate have been made for each test system. The number of replicate wells showing either bacterial growth or no growth is also readily assessed by eye by following the colour change.
Dose responses for individual components and binary mixtures of actives at a used concentration ratio were generated by sequential dilution of liquors with further surfactant solution to obtain a series of endpoints.
In some selected cases, the combinations were also tested at the weight ratio 1:1.

[2] = tested on: Escherichia coli (E. coli—ATCC #10536); test: Synergy test: high resolution MBC microtiter plate assay, phosphate buffer containing 35% dipropylene glycol, 15 seconds contact; settings: E. coli 10536; for SI (Synergy Index = Qa/QA + Qb/QB): at Qa and Qb, <1 synergy, 1 additivity, >1 antagonism; for Qb: MBC of the second component (B) acting alone (QB): component alone (Qa = 0), complete kill in 15 seconds
From the text: One measure of synergy is -the industrially accepted method described by Kull, F. C.; Eisman, P. C.; Sylwestrowicz, H. D. and Mayer, R. L., in Applied Microbiology 9:538-541 (1961), using the ratio determined by the formula:
Qa/QA+Qb/QB=Synergy Index (“SI”)
wherein: QA=concentration of compound A (first component) in percent, acting alone, which produced an end point (MBC of Compound A). Qa =concentration of compound A in percent, in the mixture, which produced an end point. QB=concentration of compound B (second component) in percent, acting alone, which produced an end point (MBC of Compound B). Qb=concentration of compound B in percent, in the mixture, which produced an end point.
When the sum of Qa/QA and Qb/QB is greater than one, antagonism is indicated. […] The lower the SI, the greater is the synergy shown by that particular mixture. The minimum biocidal concentration (MBC) of a microbicide is the lowest concentration tested under a specific set of conditions that provides complete kill of the tested microorganisms.
Synergy tests were-conducted using standard microtiter plate assays with, phosphate buffer containing 35% dipropylene glycol (DPG). In this method, a wide range of combinations of chemicals was tested by conducting high resolution MBC assays of Component (A) in the presence of various concentrations of Component (B). High resolution MBCs were determined by adding varying amounts of microbicide to one column of a microtiter plate and doing subsequent ten-fold dilutions using an automated liquid handling system to obtain a series of closely spaced endpoints. The MBC plate was inoculated one column at a time with the test microorganism. An aliquot of the inoculated well was transferred at 15 seconds to a plate containing a neutralizing agent (D/E Neutralizing Broth), mixed and held for 5 minutes before being transferred to a growth plate containing trypticase soy broth (TSB). The TSB plate was incubated at 37° C. and read for the presence/absence of growth at 24 hours. The lowest level tested that provided complete kill (as evidenced by no growth in the microtitre plate) of the test organisms in 15 seconds is the minimum biocidal concentration (MBC).
The synergy of the combinations of the present invention was determined against a bacterium, Escherichia coli (E. coli—ATCC #10536), at a concentration of approximately 1×10^8 bacteria per mL. This microorganism is representative of natural contaminants in many consumer and industrial applications.

[3] = tested on: Escherichia coli (10536 strain); test: Antimicrobial efficacy in water, 15 seconds contact, mean bacterial survival NMBS by colony count
Experimental: An overnight culture of Escherichia coli (10536 strain) was prepared in 50 ml total volume of TSB broth, grown for ca. 18 hrs at 37° C. and shaken at 150 rpm. 1 ml of this overnight E. coli culture was transferred to 50 ml of fresh TSB broth and incubated at 37° C. at 150 rpm for ca. 4 hours. […] This bacterial stock was used for assaying against antimicrobial actives (in triplicate).
The following assay describes the testing of 8 materials using 6 dilutions across half of a 96-well micro litre plate (MTP). Using this approach it is possible to assay 16 actives (without replicates) with, one full dilution plate, replicating this set up in two halves of the plate columns, 1-6 and 7-12.
IM solutions of the test actives were prepared in dimethylsulphoxide (DMSO).
Aliquots (270 μl) of the materials at 1.11 times the final concentration were dispensed into the wells of the MTP along one column (A1-H1). This MTP was labeled as the “Screening plate”.
In another MTP, labeled as the “Dilution plate”, 270 μl of D/E neutralising solution from DIFCO Composition was added to column 1. The composition of the neutralising solution was as follows: pancreatic digest of casein, 5.0 g/L; Yeast Extract, 2.5 g/L; Dextrose, 10 g/L, sodium thioglycollate, 1.0 g/L, sodium thiosulphate, 6.0 g/L; sodium bisulphite, 2.5 g/L; Polysorbate 80, 5.0 g/L; lecithin 7.0 g/L; bromocresol purple, 0.02 g/L with a pH is the range 7.6±0.2.
270 μl of tryptone diluent solution was added to all the remaining wells of the Dilution MTP (columns 2-6).
Bacterial stock (30 μl) was then added to the prepared 270 μl of the solution of actives in the Screening Plate and mixed, using a multichannel pipette with 8 tips to aspirate and dispense the same volume of bacterial stock in parallel to 8 wells in rows A-H. After a contact time of 15 seconds, the mixtures were quenched by transferring 30 μl volumes of the mixtures into the 270 μl D/E neutralising solution in the prepared dilution plate, using aspiration to mix. After exactly 5 minutes in the D/E neutralising solution, 30 μl volumes were transferred from column 1 to column 2 of the Dilution MTP and mixed, before transferring further 30 μl volumes from column 2 into column 3. This process was repeated serially diluting the bacteria across the plate to column 6.
30 μl volumes from each well in the Dilution MTP were transferred onto pre-labeled segment of Tryptone Soya Agar (TSA) plates starting from the lowest bacterial concentration (highest dilution, column 6) to the highest bacterial concentration (column 1). The TSA plates were allowed to stand for ca. 2 hours so that the 30 μl inocula spots could dry and the plates were then inverted and incubated overnight at 37° C. before enumerating the bacterial colonies at the labeled dilutions to determine the effects of the actives on bacterial growth.
Mean bacterial survival numbers NMBS (expressed in Log CFU/ml) are obtained by first determining the segment of the TSA plate where the number of bacterial colonies is countable. From the colony number in this segment, NMBS is calculated by the formula: […]
Here, Ncol is the colony count, and DF is the dilution factor taken from the MTP-well corresponding to the TSA plate segment (i.e. DF may range from 1 for the quench, to 6 for the highest dilution).

[4] = tested on: Staphylococcus aureus (10788 strain); test: as above
[5] = in 2.85% sodium cocoyl glycinate + 1.85% sodium lauroamphoacetate solution at pH 10, E. coli, read-out: MBC (% w/v)

SMILES | MBC [1, 5] | No. of replicates showing growth (out of 4) ([1]; component alone at 0.2% w/v) | Δ OD 450 nm = OD450 (time = 16 hours) - OD450 (time zero), Mean ([1]; component alone at 0.2% w/v) | Δ OD 590 nm OD590 (time = 16 hours) - OD590 (time zero), Mean ([1]; component alone at 0.2% w/v) | No. of replicates showing growth (out of 4) ([1]; component alone at 0.5% w/v) | Δ OD 450 nm = OD450 (time = 16 hours) - OD450 (time zero), Mean ([1]; component alone at 0.5% w/v) | Δ OD 590 nm OD590 (time = 16 hours) - OD590 (time zero), Mean ([1]; component alone at 0.5% w/v) | No. of replicates showing growth (out of 4) ([1]; component alone at […] w/v) | SI (Synergy Index = Qa/QA + Qb/QB) [2] | Qb: MBC of the second component (B) acting alone (QB) [2] | Log reduction E. coli ATCC 10536 ([3]; component alone at 0.1% w/v) | Log reduction S. aureus ATCC 6538 ([4]; component alone at 0.1% w/v) | also measured
C=CC(C)(O)CCC=C(C)C (racemic) [3,7-dimethylocta-1,6-dien-3-ol] | > 5000 µg/mL | 4 out of 4 | −0.53 | 0.60 | 3 out of 4 | −0.30 | 0.50 | 4 out of 4 | 1.00 | 0.5 weight % | 0.06 | −0.13 | –
CC=Cc1ccccc1O [2-propenylphenol] | – | – | – | – | – | – | – | – | – | – | 1.86 | 1.92 | Log reduction E. coli ATCC 10536 ([3]; component alone at 0.05% w/v): 1.27; Log reduction S. aureus ATCC 6538 ([4]; component alone at 0.05% w/v): −0.18
C/C=C/c1ccccc1O [(E)-2-(prop-1-enyl)phenol] | – | 4 out of 4 | −0.53 | 0.63 | – | – | – | 4 out of 4 | 1.00 | – | – | – | MBC ([1]; pH 10, read-out: MBC (% w/v)): > 2000 µg/mL; No. of replicates showing growth (out of 4) ([1]; component alone at 0.1% w/v): 4 out of 4; Δ OD 450 nm = OD450 (time = 16 hours) - OD450 (time zero), Mean ([1]; component alone at 0.1% w/v): −0.60; Δ OD 590 nm OD590 (time = 16 hours) - OD590 (time zero), Mean ([1]; component alone at 0.1% w/v): 0.59; Δ OD 450 nm = OD450 (time = 16 hours) - OD450 (time zero), Mean ([1]; component alone at […] w/v): −0.57; Δ OD 590 nm OD590 (time = 16 hours) - OD590 (time zero), Mean ([1]; component alone at […] w/v): 0.58
CC(C)=CCC/C(C)=C\CO [cis-3,7-dimethyl-2,6-octadien-1-ol] | > 5000 µg/mL | 4 out of 4 | −0.53 | 0.60 | 2 out of 4 | −0.14 | 0.40 | – | 1.00 | 0.25 weight % and 0.3 weight % and 0.5 weight % | – | – | No. of replicates showing growth (out of 4) ([1]; component alone at 0.3% w/v): 4 out of 4; Δ OD 450 nm = OD450 (time = 16 hours) - OD450 (time zero), Mean ([1]; component alone at 0.3% w/v): −0.51; Δ OD 590 nm OD590 (time = 16 hours) - OD590 (time zero), Mean ([1]; component alone at 0.3% w/v): 0.61; No. of replicates showing growth (out of 4) ([1]; component alone at 0.4% w/v): 4 out of 4; Δ OD 450 nm = OD450 (time = 16 hours) - OD450 (time zero), Mean ([1]; component alone at 0.4% w/v): −0.48; Δ OD 590 nm OD590 (time = 16 hours) - OD590 (time zero), Mean ([1]; component alone at 0.4% w/v): 0.62
